Results from patent US4880924A, “Novel compounds and use thereof in selective cyclization process” (Nelson Research & Development Co., priority 1986, dated 1989).

Tests used:
GABA receptor sites = test: displacement of 3H-muscimol from specific GABA receptor sites in mouse brain membranes; conditions: read-out: Concentration of the test compound showing 50% inhibition of labelled ligand binding
Experimental: (§1) The novel compound prepared above was investigated for its potency in interaction with GABA receptor sites in BRAIN. As described in detail in Roberts et. al. J. Neuroscience, Vol. 1, No. 2, pp. 132-140 (1981), two experiments were performed: (1) the potency of the compound in displacing ^3 H-muscimol, a known GABA agonist, from specific GABA receptor sites in mouse brain membranes, and (2) the potency in displacing ^3 H-GABA from sodium-dependent GABA binding sites in mouse brain membranes, which reflects potency for the GABA reuptake inactivation process. […] This reflects very good potency for the compound prepared in Example 4.

[1] = molecular target: T1, sodium-dependent GABA binding sites (Mus musculus); test: displacement of 3H-GABA from sodium-dependent GABA binding sites in mouse brain membranes (GABA reuptake inactivation process); conditions: read-out: Concentration of the test compound showing 50% inhibition of labelled ligand binding
T1 construct: from tissue; host or cells: mouse brain membranes
Experimental: as §1

In the case of `NCCC(C(=O)O)C1COC(=O)C1` (stereo not drawn) [Example 4, α-(2-aminoethyl)tetrahydro-5-oxo-3-furan acetic acid], the IC50 (GABA receptor sites) is reported as 2.1 µM and the IC50 [1] is reported as 25 µM.
